Data from patent publication US4950663A, “Antihypertensive composition” (priority 1989, dated 1990).
“Also recorded” adds a separate entry of the source. Structures can show the parent of a compound that is named as a salt.

What was measured:
[1] = Comparative cardiovascular effects (heart rate, mean arterial pressure, coronary blood flow) after intravenous dosing in anesthetized dogs; type: in vivo; details: for effect on heart rate (in words): M2 at 1600 μg/kg, diltiazem at 400 μg/kg; for reduction in heart rate: M2 at a dosage 4 times greater than diltiazem
[2] = Elimination and metabolism; type: in vivo
[3] = Side effects; type: in vivo; details: compositions
[4] = dogs; test of dose required to cause a 50% increase in blood flow; cited from earlier work
[5] = Liposolubility; type: physicochemical
[6] = anesthetized dogs, 50 μg/kg intravenous, value at 0 μg/kg: D 59, M2 49
[7] = anesthetized dogs, 50 μg/kg intravenous, value at 0 μg/kg: D 99, M2 99
[8] = anesthetized dogs, 200 μg/kg intravenous, value at 0 μg/kg: D 59, M2 49
[9] = anesthetized dogs, 200 μg/kg intravenous, value at 0 μg/kg: D 99, M2 99
[10] = anesthetized dogs, 200 μg/kg intravenous, value at 0 μg/kg: D 130, M2 127

With `COc1ccc([C@@H]2Sc3ccccc3N(CCN(C)C)C(=O)[C@@H]2OC(C)=O)cc1` [Diltiazem, (+)-cis-3-(acetyloxy)-5-[2-dimethylamino-ethyl]-2,3-dihydro-2-(4-methoxyphenyl)-l,5-benzothiaz epin-4(5H)one monohydrochloride, reference compound] the Coronary blood flow ([1]; anesthetized dogs, 15 μg/kg intravenous, value at 0 μg/kg: D 59) was 67 mL/min, the Mean arterial pressure ([1]; anesthetized dogs, 15 μg/kg intravenous, value at 0 μg/kg: D 99) was 94 mm Hg and the Coronary blood flow [1, 6] was 73 mL/min. The Mean arterial pressure [1, 7] was 84 mm Hg, the Coronary blood flow [1, 8] was 91 mL/min and the Mean arterial pressure [1, 9] was 67 mm Hg. The Heart rate [1, 10] was 122 beats/minute, the Coronary blood flow ([1]; anesthetized dogs, 400 μg/kg intravenous, value at 0 μg/kg: D 59) was 83 mL/min and the Mean arterial pressure ([1]; anesthetized dogs, 400 μg/kg intravenous, value at 0 μg/kg: D 99) was 58 mm Hg. The “Maximal reduction in mean arterial pressure” value ([1]; anesthetized dogs, intravenous) was -38%, the “increase in coronary blood flow” value ([1]; anesthetized dogs, intravenous) was greater than 50% and the “effect on heart rate (in words)” value ([1]; anesthetized dogs, intravenous) was “significant effect on the heart rate”. For the same molecule, the “reduction in heart rate” value ([1]; anesthetized dogs, intravenous) was greater than 20%.
For `CNCCN1C(=O)C(O)C(c2ccc(OC)cc2)Sc2ccccc21` (stereo not drawn) [M2, N-desmethyl, deacetyl diltiazem], the “elimination half life compared with diltiazem” value ([2]; compared with diltiazem) was “shorter elimination half life”, the “metabolism by the liver” value ([2]; in vivo) was “not metabolized extensively by the liver” and the “side effects compared with diltiazem” value [3] was “less side effects than diltiazem”. For the same molecule, the Coronary blood flow [1, 6] was 53 mL/min, the Mean arterial pressure [1, 7] was 96 mm Hg and the Heart rate ([1]; anesthetized dogs, 50 μg/kg intravenous, value at 0 μg/kg: D 130, M2 127) was 127 beats/minute. For the same molecule, the Coronary blood flow [1, 8] was 55 mL/min, the Mean arterial pressure [1, 9] was 88 mm Hg and the Heart rate [1, 10] was 127 beats/minute. It also gave a Coronary blood flow ([1]; anesthetized dogs, 800 μg/kg intravenous, value at 0 μg/kg: M2 49) of 61 mL/min, a Mean arterial pressure ([1]; anesthetized dogs, 800 μg/kg intravenous, value at 0 μg/kg: M2 99) of 74 mm Hg and a Heart rate ([1]; anesthetized dogs, 800 μg/kg intravenous, value at 0 μg/kg: M2 127) of 125 beats/minute. The Coronary blood flow ([1]; anesthetized dogs, 1600 μg/kg intravenous, value at 0 μg/kg: M2 49) was 61 mL/min, the Mean arterial pressure ([1]; anesthetized dogs, 1600 μg/kg intravenous, value at 0 μg/kg: M2 99) was 63 mm Hg and the Heart rate ([1]; anesthetized dogs, 1600 μg/kg intravenous, value at 0 μg/kg: M2 127) was 119 beats/minute. The “Maximal reduction in mean arterial pressure” value ([1]; anesthetized dogs, intravenous) was -36%, the “coronary blood flow dilation relative to diltiazem” value ([1]; anesthetized dogs, intravenous) was “about half that effect; also recorded: about half that of diltiazem” and the “increase in coronary blood flow” value ([1]; anesthetized dogs, intravenous) was greater than 25%. The “peripheral dilation capacity relative to diltiazem” value ([1]; anesthetized dogs, intravenous) was “equivalent peripheral dilation capacity”, the “effect on heart rate (in words)” value ([1]; anesthetized dogs, intravenous) was “devoted of major effect upon heart rate” and the “effect on heart rate (in words)” value ([1]; anesthetized dogs, intravenous, deacetyl diltiazem) was “only a slight effect on the heart rate”. For the same molecule, the “reduction in heart rate” value ([1]; anesthetized dogs, intravenous) was less than 10%, the “serious cardiovascular adverse effects” value ([1]; anesthetized dogs, maximal dosage 4 times greater than diltiazem) was “without serious cardiovascular adverse effects” and the “effect on mean arterial pressure (in words)” value ([1]; anesthetized dogs, various intravenous dosages) was “decreases the mean arterial pressure”. The “decrease in heart rate compared with diltiazem” value ([1]; compared with diltiazem) was “decrease the heart rate to a lesser degree than diltiazem”, the “intravenous dosages suitable for use as a coronary dilator” value ([1]; intravenous) was 50 to 1600 µg/kg and the “intravenous dosages useful to decrease blood pressure or mean arterial pressure” value ([1]; intravenous) was 200 to 1600 µg/kg. The “effect on coronary blood flow relative to diltiazem” value [4] was 20% and the “liposolubility compared with diltiazem” value [5] was “lower liposolubility than diltiazem”.
